What follows are compounds tested against T1, PARK7 (Homo sapiens, UniProt Q99497) (assay: High-throughput screen of the crude compound library, PARK7 fluorescence polarization (FP) assay with FP reagent JYQ-107). Conditions: 1.25 µM, crude compound library, FP reagent JYQ-107.
T1 sequence (Q99497 1-189): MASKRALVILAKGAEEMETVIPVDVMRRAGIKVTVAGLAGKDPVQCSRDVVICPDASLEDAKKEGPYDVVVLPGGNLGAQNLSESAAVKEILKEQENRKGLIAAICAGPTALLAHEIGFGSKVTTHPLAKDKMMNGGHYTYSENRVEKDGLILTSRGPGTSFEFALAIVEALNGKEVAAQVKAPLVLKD
Assay type: biochemical
Excerpt: Therefore, taking JYQ-88 as a starting point, we conducted an optimization to further improve the molecule in terms of inhibitory potency, specificity, and cellular uptake. […] First, a small tailored library was designed and synthesized to investigate whether the introduction of larger, hydrophilic substituents on JYQ-88 would enhance the interaction with the PARK7 pocket. […] The second approach involved the generation of a compound library containing diverse substituents at the azidomethyl position. […] We next performed a high-throughput screen of this crude compound library using our in-house developed PARK7 fluorescence polarization (FP) assay.[15]
`N#CN1CC[C@@H](C(=O)Nc2nc3c(s2)CN(C(=O)c2cnccn2)CC3)C1` [compound 468] was tested, and the “HTS FP assay %Inhibition (1.25 µM)” value was 76.5%.

Same assay, conditions: 1.25 µM, crude compound library, FP reagent JYQ-107; read-out: HTS FP assay %Inhibition (1.25 µM)
`N#CN1CC[C@@H](C(=O)Nc2nc3c(s2)CN(C(=O)CCN2C(=O)C=CC2=O)CC3)C1` [compound 398] showed an inhibition at 1.25 µM of 65.7%.
In the case of `N#CN1CC[C@@H](C(=O)Nc2nc3c(s2)CN(C(=O)C2CCN(c4ncccn4)CC2)CC3)C1` [compound 476], the inhibition at 1.25 µM is reported as 70.3%.
For `COc1ccccc1-c1cc(C(=O)N2CCc3nc(NC(=O)[C@@H]4CCN(C#N)C4)sc3C2)n[nH]1` [compound 452], the inhibition at 1.25 µM was 84.6%.
`N#CN1CC[C@@H](C(=O)Nc2nc3c(s2)CN(C(=O)c2ccc(/N=N/c4ccccc4)cc2)CC3)C1` [compound 403] showed an inhibition at 1.25 µM of 84.3%.
`N#CN1CC[C@@H](C(=O)Nc2nc3c(s2)CN(C(=O)CN2C(=O)c4ccccc4C2=O)CC3)C1` [compound 436] gave an inhibition at 1.25 µM of 72.4%.
In the case of `Cc1ncc(C(=O)N2CCc3nc(NC(=O)[C@@H]4CCN(C#N)C4)sc3C2)s1` [compound 469], the inhibition at 1.25 µM is reported as 76%.
With `CNc1ccc(C(=O)N2CCc3nc(NC(=O)[C@@H]4CCN(C#N)C4)sc3C2)cc1` [compound 439] the inhibition at 1.25 µM was 73.3%.
`N#CN1CC[C@@H](C(=O)Nc2nc3c(s2)CN(C(=O)Cc2ccc(NS(=O)(=O)c4cccc(C(F)(F)F)c4)cc2)CC3)C1` [compound 385] showed an inhibition at 1.25 µM of 81%.
`CC(C)c1cc(C(=O)N2CCc3nc(NC(=O)[C@@H]4CCN(C#N)C4)sc3C2)n(-c2ccccc2)n1` [compound 378] gave an inhibition at 1.25 µM of 87%.
With `COc1cc(CC(=O)N2CCc3nc(NC(=O)[C@@H]4CCN(C#N)C4)sc3C2)ccc1O` [compound 437] the inhibition at 1.25 µM was 73.6%.
With `N#CN1CC[C@@H](C(=O)Nc2nc3c(s2)CN(C(=O)c2ccc4c(c2)ncn4C2CCCCO2)CC3)C1` (some centres unmarked) [compound 471] the inhibition at 1.25 µM was 80%.
For `N#CN1CC[C@@H](C(=O)Nc2nc3c(s2)CN(C(=O)C2CC2)CC3)C1` [compound 464], the inhibition at 1.25 µM was 78.9%.
`Cc1cncc(C(=O)N2CCc3nc(NC(=O)[C@@H]4CCN(C#N)C4)sc3C2)c1` [compound 397] was tested, and the inhibition at 1.25 µM was 68.5%.
Work on `N#CN1CC[C@@H](C(=O)Nc2nc3c(s2)CN(C(=O)c2ccccc2CCc2ccccc2)CC3)C1` [compound 413] yielded an inhibition at 1.25 µM of 79.7%.
In the case of `N#CN1CC[C@@H](C(=O)Nc2nc3c(s2)CN(C(=O)Cc2ccc([N+](=O)[O-])cc2)CC3)C1` [compound 399], the inhibition at 1.25 µM is reported as 58.2%.
Compound `N#CN1CC[C@@H](C(=O)Nc2nc3c(s2)CN(C(=O)c2ccc(F)c(F)c2)CC3)C1` [compound 446] has an inhibition at 1.25 µM of 74.4%.
`N#CN1CC[C@@H](C(=O)Nc2nc3c(s2)CN(C(=O)c2cn[nH]c2C2CC2)CC3)C1` [compound 357] showed an inhibition at 1.25 µM of 69.7%.
For `N#CN1CC[C@@H](C(=O)Nc2nc3c(s2)CN(C(=O)C2CCCN(c4ccc(Cl)nn4)C2)CC3)C1` (some centres unmarked) [compound 356], the inhibition at 1.25 µM was 76.2%.

Same assay, conditions: 1.25 µM, crude compound library; read-out: HTS FP assay %Inhibition (1.25 µM)
`Cc1noc(C)c1S(=O)(=O)N1CCC(C(=O)N2CCc3nc(NC(=O)[C@@H]4CCN(C#N)C4)sc3C2)CC1` [compound 198] gave an inhibition at 1.25 µM of 65.2%.
With `Cn1ncc(C(=O)N2CCc3nc(NC(=O)[C@@H]4CCN(C#N)C4)sc3C2)c1-n1cccc1` [compound 33] the inhibition at 1.25 µM was 87%.
`N#CN1CC[C@@H](C(=O)Nc2nc3c(s2)CN(C(=O)c2csc(CCc4ccccc4)n2)CC3)C1` [compound 300] gave an inhibition at 1.25 µM of 86.1%.
`N#CN1CC[C@@H](C(=O)Nc2nc3c(s2)CN(C(=O)c2cn(CC(=O)N4CCCC4)nn2)CC3)C1` [compound 77] was tested, and the inhibition at 1.25 µM was 84.1%.
Work on `N#CN1CC[C@@H](C(=O)Nc2nc3c(s2)CN(C(=O)c2cnn(CCN4CCCC4)c2)CC3)C1` [compound 137] yielded an inhibition at 1.25 µM of 70.1%.
With `N#CN1CC[C@@H](C(=O)Nc2nc3c(s2)CN(C(=O)C2CC(=O)N(c4cnccn4)C2)CC3)C1` (some centres unmarked) [compound 24] the inhibition at 1.25 µM was 71.4%.
With `CC1(C(=O)N2CCc3nc(NC(=O)[C@@H]4CCN(C#N)C4)sc3C2)CCCCN1C(=O)OCc1ccccc1` (some centres unmarked) [compound 283] the inhibition at 1.25 µM was 65.2%.
Compound `Cc1noc(C)c1COc1ccc(CC(=O)N2CCc3nc(NC(=O)[C@@H]4CCN(C#N)C4)sc3C2)cc1` [compound 107] has an inhibition at 1.25 µM of 82.7%.
Work on `N#CN1CC[C@@H](C(=O)Nc2nc3c(s2)CN(C(=O)c2cc(S(=O)(=O)N4CCOCC4)c[nH]2)CC3)C1` [compound 115] yielded an inhibition at 1.25 µM of 81%.
Compound `N#CN1CC[C@@H](C(=O)Nc2nc3c(s2)CN(C(=O)C2CCN(S(=O)(=O)N4CCCCC4)CC2)CC3)C1` [compound 282] has an inhibition at 1.25 µM of 72.8%.
`Cn1nc(CC(=O)N2CCc3nc(NC(=O)[C@@H]4CCN(C#N)C4)sc3C2)cc1C1CC1` [compound 241] gave an inhibition at 1.25 µM of 86.1%.
For `N#CN1CC[C@@H](C(=O)Nc2nc3c(s2)CN(C(=O)c2cccnc2-n2cncn2)CC3)C1` [compound 292], the inhibition at 1.25 µM was 73.8%.
`Cc1nc(CN2CCCC2C(=O)N2CCc3nc(NC(=O)[C@@H]4CCN(C#N)C4)sc3C2)no1` (some centres unmarked) [compound 43] showed an inhibition at 1.25 µM of 71.1%.
With `N#CN1CC[C@@H](C(=O)Nc2nc3c(s2)CN(C(=O)c2cccc(-c4cnco4)c2)CC3)C1` [compound 124] the inhibition at 1.25 µM was 85.6%.
Work on `Cn1cc(S(=O)(=O)N2CCOCC2)cc1C(=O)N1CCc2nc(NC(=O)[C@@H]3CCN(C#N)C3)sc2C1` [compound 240] yielded an inhibition at 1.25 µM of 75.1%.
For `N#CN1CC[C@@H](C(=O)Nc2nc3c(s2)CN(C(=O)CC2(n4cnnn4)CCOCC2)CC3)C1` [compound 226], the inhibition at 1.25 µM was 68.7%.
`N#CN1CC[C@@H](C(=O)Nc2nc3c(s2)CN(C(=O)c2ccc(CN4CCCCCC4)s2)CC3)C1` [compound 195] was tested, and the inhibition at 1.25 µM was 72.4%.
For `N#CN1CC[C@@H](C(=O)Nc2nc3c(s2)CN(C(=O)CCN(Cc2ccccc2)S(=O)(=O)c2c(Cl)cccc2Cl)CC3)C1` [compound 9], the inhibition at 1.25 µM was 69.7%.
Work on `Cc1nn(-c2ccc(C(F)(F)F)cn2)c(C)c1CC(=O)N1CCc2nc(NC(=O)[C@@H]3CCN(C#N)C3)sc2C1` [compound 169] yielded an inhibition at 1.25 µM of 77.8%.
`N#CN1CC[C@@H](C(=O)Nc2nc3c(s2)CN(C(=O)Cc2csc(COc4ccc(Cl)cc4)n2)CC3)C1` [compound 13] was tested, and the inhibition at 1.25 µM was 75.4%.
`Cc1nn(C2CCOCC2)c(C)c1C(=O)N1CCc2nc(NC(=O)[C@@H]3CCN(C#N)C3)sc2C1` [compound 135] showed an inhibition at 1.25 µM of 63%.
`N#CN1CC[C@@H](C(=O)Nc2nc3c(s2)CN(C(=O)c2ccc(CNS(=O)(=O)c4ccc(F)c(F)c4F)cc2)CC3)C1` [compound 151] gave an inhibition at 1.25 µM of 81.1%.
With `Cn1cc(S(=O)(=O)N2CCCC(C(=O)N3CCc4nc(NC(=O)[C@@H]5CCN(C#N)C5)sc4C3)C2)cn1` (some centres unmarked) [compound 114] the inhibition at 1.25 µM was 68.2%.
`N#CN1CC[C@@H](C(=O)Nc2nc3c(s2)CN(C(=O)C2(n4cnnn4)CC2)CC3)C1` [compound 34] showed an inhibition at 1.25 µM of 65.7%.
With `N#CN1CC[C@@H](C(=O)Nc2nc3c(s2)CN(C(=O)c2ccc(S(=O)(=O)N4CCOCC4)cc2)CC3)C1` [compound 98] the inhibition at 1.25 µM was 78.4%.
`Cc1onc(-c2ccncc2)c1C(=O)N1CCc2nc(NC(=O)[C@@H]3CCN(C#N)C3)sc2C1` [compound 224] was tested, and the inhibition at 1.25 µM was 73.5%.
Compound `N#CN1CC[C@@H](C(=O)Nc2nc3c(s2)CN(C(=O)c2ccc(OCc4cccnc4)cc2)CC3)C1` [compound 317] has an inhibition at 1.25 µM of 76.2%.
`N#CN1CC[C@@H](C(=O)Nc2nc3c(s2)CN(C(=O)c2nc(N4CCCC4)ncc2Cl)CC3)C1` [compound 6] was tested, and the inhibition at 1.25 µM was 71.7%.
Compound `N#CN1CC[C@@H](C(=O)Nc2nc3c(s2)CN(C(=O)Cc2cc(-c4ccccc4)on2)CC3)C1` [compound 14] has an inhibition at 1.25 µM of 73%.
`N#CN1CC[C@@H](C(=O)Nc2nc3c(s2)CN(C(=O)Cc2ccc(-n4cccc4)cc2)CC3)C1` [compound 309] gave an inhibition at 1.25 µM of 80.2%.
Work on `N#CN1CC[C@@H](C(=O)Nc2nc3c(s2)CN(C(=O)c2ccnn2C2CCC2)CC3)C1` [compound 232] yielded an inhibition at 1.25 µM of 76%.
Work on `Cc1nc(COc2ccccc2C(=O)N2CCc3nc(NC(=O)[C@@H]4CCN(C#N)C4)sc3C2)no1` [compound 223] yielded an inhibition at 1.25 µM of 74%.
`CCn1nccc1-c1cc(C(=O)N2CCc3nc(NC(=O)[C@@H]4CCN(C#N)C4)sc3C2)no1` [compound 285] showed an inhibition at 1.25 µM of 81.3%.
For `COc1ccc(OCc2cc(C)on2)c(C(=O)N2CCc3nc(NC(=O)[C@@H]4CCN(C#N)C4)sc3C2)c1` [compound 116], the inhibition at 1.25 µM was 81.9%.
For `N#CN1CC[C@@H](C(=O)Nc2nc3c(s2)CN(C(=O)c2cc(C4CC4)no2)CC3)C1` [compound 266], the inhibition at 1.25 µM was 73.2%.
Work on `N#CN1CC[C@@H](C(=O)Nc2nc3c(s2)CN(C(=O)C2CCN(Cc4ccc(Cl)s4)CC2)CC3)C1` [compound 23] yielded an inhibition at 1.25 µM of 68.4%.
With `N#CN1CC[C@@H](C(=O)Nc2nc3c(s2)CN(C(=O)C2CC4C=CC2O4)CC3)C1` (some centres unmarked) [compound 275] the inhibition at 1.25 µM was 72%.
`N#CN1CC[C@@H](C(=O)Nc2nc3c(s2)CN(C(=O)c2sccc2-n2cccc2)CC3)C1` [compound 310] gave an inhibition at 1.25 µM of 85.3%.
Work on `N#CN1CC[C@@H](C(=O)Nc2nc3c(s2)CN(C(=O)c2ccc(-n4ccnc4)nn2)CC3)C1` [compound 92] yielded an inhibition at 1.25 µM of 64.4%.
With `N#CN1CC[C@@H](C(=O)Nc2nc3c(s2)CN(C(=O)CC(O)(c2nccn2Cc2ccccc2)C(F)(F)F)CC3)C1` (some centres unmarked) [compound 29] the inhibition at 1.25 µM was 78.4%.
For `N#CN1CC[C@@H](C(=O)Nc2nc3c(s2)CN(C(=O)C(Cc2ccccc2)N2CCCOC2=O)CC3)C1` (some centres unmarked) [compound 252], the inhibition at 1.25 µM was 74.6%.

Same assay, conditions: HTS of crude compound library, sheet "SMILES+%Inh HTS"
With `N#CN1CC[C@@H](C(=O)Nc2nc3c(s2)CN(C(=O)c2cnccn2)CC3)C1` [compound 468] the “% Inhibition” value was 76.5%.

Same assay, conditions: read-out: HTS FP assay %Inhibition (1.25 µM)
For `N#CN1CC[C@@H](C(=O)Nc2nc3c(s2)CN(C(=O)Cn2cc(C=O)c4ccccc42)CC3)C1` [compound 423], the inhibition at 1.25 µM was 72.5%.

Source: article PMC11129182, “Development of Inhibitors, Probes, and PROTAC Provides a Complete Toolbox to Study PARK7 in the Living Cell” (Journal of Medicinal Chemistry, 2024)
